Results as given in patent US7446122B2, “Substituted indole derivatives” (Cephalon, Inc., priority 2003, dated 2008).

Columns and labels:
[1] = system: Daudi human Burkitt Lymphoma derived tumors; assay: Daudi lymphoma murine xenograft model, efficacy; type: in vivo, male SCID mice; settings: for mean tumor volume at termination of the study: daily Monday to Friday for two weeks, control 1583 mm^3
Protocol: Male SCID mice, 6-8 weeks of age, obtained from Simonsen Laboratories, Inc. (Gilroy, Calif.) were housed in groups of five.
The Daudi human Burkitt Lymphoma cells were obtained from American Type Culture Collection and were inoculated subcutaneously (1.0×10^7 cells/mouse) on the flanks of SCID mice. After the tumors reached approximately 100 mm^3 treatment was initiated.
Body weights and tumor volume of all mice were measured and recorded twice weekly. Tumors were measured in three dimensions and volume calculated using the formula: […]. Time for the tumors (days) to grow to 4× and 8× the initial volume at dosing were assessed. Study compounds were administered at 125 or 250 mg/kg/day (M-F) via oral gavage until the end of the study.
The efficacy of chlorambucil (2 and 3 mg/kg/d), (R-etodoalc) (400 mg/kg/d) and compound 47 (250 mg/kg/d), compound 26 (250 mg/kg/d), and compound 1 (125 mg/kg/d) against Daudi derived tumors in male SCID mice were studied. R-etodolac and compounds 1, 26 and 47 were prepared in sesame oil. Both chlorambucil (ip, 0.1 ml) and compounds of the invention (per os [p.o.], 0.31 ml) were dosed daily (Monday to Friday) for two weeks. SDX-101 (0.31 ml) was dosed p.o. daily until the end of the study. […] However, all treated mice recovered after Day 2 and maintained their weights. There was no body weight loss observed in other treatment groups. At termination of the study, the control group mean tumor volume was 1583 mm^3. The mean tumor volume of chlorambucil treated groups were 864 and 766 mm^3 with 2 and 3 mg/kg/d chlorambucil treatment, respectively. The mean tumor volume of R-etodolac and compounds 1, […] and 47 were 802, 996, 1011, and 1157 mm^3 with compounds 47, 36, 1 and R-etodolac treatment, respectively. […] At termination of the study, tumor samples along with liver, kidney, and spleen samples from each group were collected and fixed in 10% buffered formalin for histopathology.

[2] = target: T1, COX-1 (Homo sapiens, UniProt P23219); assay: Cox-1 assay: PGE2 formation in human platelets; type: cell-based; settings: compounds are screened at 10 μM
T1 construct: endogenous in cells; host or cells: human platelets
T1 sequence (P23219 24-599): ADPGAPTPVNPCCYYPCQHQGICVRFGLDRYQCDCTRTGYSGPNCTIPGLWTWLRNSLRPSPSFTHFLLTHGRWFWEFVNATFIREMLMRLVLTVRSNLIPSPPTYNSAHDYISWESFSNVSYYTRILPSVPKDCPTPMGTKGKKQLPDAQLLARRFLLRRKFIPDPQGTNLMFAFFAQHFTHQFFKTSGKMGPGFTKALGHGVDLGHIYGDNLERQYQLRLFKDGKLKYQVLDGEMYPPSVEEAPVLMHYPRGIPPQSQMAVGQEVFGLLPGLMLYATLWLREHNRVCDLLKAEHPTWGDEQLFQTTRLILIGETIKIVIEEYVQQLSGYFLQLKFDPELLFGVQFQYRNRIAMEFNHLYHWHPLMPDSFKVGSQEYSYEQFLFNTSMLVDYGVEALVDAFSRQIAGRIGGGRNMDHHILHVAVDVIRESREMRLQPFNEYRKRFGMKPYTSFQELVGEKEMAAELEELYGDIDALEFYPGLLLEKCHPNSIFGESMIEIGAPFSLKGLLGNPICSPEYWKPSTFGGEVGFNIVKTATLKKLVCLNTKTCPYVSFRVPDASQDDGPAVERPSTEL
Protocol: Test compound and/or vehicle is incubated with human platelets (10^8/ml) containing the phospholipase inhibitor MLnFP (100 μM) for 15 minutes at 37° C. Arachidonic acid (100 μM) is then added for a further 15 minute incubation period. The reaction is stopped by addition of 1 N HCl and neutralized with 1N NaOH. PGE2 levels in the supernatant are determined using the Amersham EIA kit. […]

[3] = target: T2, Cyclooxygenase-2 (human recombinant, expressed in Sf9 cell) (Homo sapiens, UniProt P35354); assay: Cox-2 assay: human recombinant cyclooxygenase-2, PGE2 by EIA; type: biochemical; settings: human recombinant enzyme; compounds are screened at 10 μM
T2 construct: purchased Cayman 60122; host or cells: Sf9 cell
T2 sequence (P35354 18-604): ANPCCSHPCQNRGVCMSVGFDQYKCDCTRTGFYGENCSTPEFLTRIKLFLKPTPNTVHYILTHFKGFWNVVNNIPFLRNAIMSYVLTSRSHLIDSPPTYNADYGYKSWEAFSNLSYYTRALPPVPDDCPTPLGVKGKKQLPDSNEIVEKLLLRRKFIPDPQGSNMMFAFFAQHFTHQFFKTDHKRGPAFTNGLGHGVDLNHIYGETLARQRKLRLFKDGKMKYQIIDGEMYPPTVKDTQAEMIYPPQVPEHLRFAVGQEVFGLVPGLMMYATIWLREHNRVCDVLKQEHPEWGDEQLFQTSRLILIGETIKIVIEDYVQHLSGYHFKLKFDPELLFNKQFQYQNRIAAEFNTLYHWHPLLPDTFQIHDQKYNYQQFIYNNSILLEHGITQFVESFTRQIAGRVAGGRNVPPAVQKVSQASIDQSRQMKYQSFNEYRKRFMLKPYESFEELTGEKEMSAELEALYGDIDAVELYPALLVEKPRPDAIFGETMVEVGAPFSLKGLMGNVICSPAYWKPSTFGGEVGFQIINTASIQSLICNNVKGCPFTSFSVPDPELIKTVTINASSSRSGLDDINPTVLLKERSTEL
Protocol: Test compound and/or vehicle is pre-incubated with 0.11 U cyclooxygenase-2, 1 mM reduced glutathione (GSH), 500 μM phenol and 1 μM hematin for 15 minutes at 37° C. The reaction is initiated by addition of 0.3 μM arachidonic acid as substrate in Tris-HCl pH 7.7 and terminated after a 5 minute incubation at 37° C. by addition of 1N HCl. Following centrifugation, substrate conversion to PGE2 is measured by an Amersham EIA kit. Compounds are screened at 10 μM. […] J. Physiol.

[4] = system: prostate cancer cell line (LNCaP); assay: Cell cytotoxicity, MTT assay, LNCaP; type: cell-based; settings: Homo sapiens, 72 h, three days incubation
Protocol: (§1) Normal prostate cells (PREC, Cambrex East Rutherford N.J.), prostate cancer cell line (LNCaP, ATCC), PBL (peripheral blood leukocytes-buffy coat San Diego Blood Bank), and primary CLL cells were incubated for one to two days in RPMI-1640 and 10% FBS (fetal bovine serum). They were plated in 96-well plates at 100,000 cells/well. Titrated concentrations of the compound to be tested were added to the culture medium. The cells were incubated three days at 37° C., 5% CO2. Viability of the cells was assayed by standard MTT assay. Each drug concentration was done in duplicate. MTT assay: 10 μl of 12 mM 3,[4,5-dimethylthiazol-2-yl]-2,5-diphenyltetrazolium bromide (MTT) (SIGMA) was added to each well. The cells were incubated at 37° C., 5% CO2 for 4 hours. 100 μl of 20% SDS, 0.015M HCl was added to each well and the cells were incubated overnight. The plates were read at absorbance 595 nm.

[5] = system: primary CLL cells; assay: Cell cytotoxicity, MTT assay, primary CLL cells; type: cell-based; settings: 72 h, three days incubation
Protocol: as §1

[6] = system: PBL (peripheral blood leukocytes); assay: Cell cytotoxicity, MTT assay, PBL; type: cell-based; settings: Leukocyte, 72 h, three days incubation
Protocol: as §1

Structure (SMILES)	IC50 [4]	also measured
O=C(O)CCCc1ccc(N(CCCl)CCCl)cc1 [Chlorambucil, chlorambucil, reference compound]	–	mean tumor volume at termination of the study ([1]; chlorambucil 2 mg/kg/d ip): 864 mm^3; mean tumor volume at termination of the study ([1]; chlorambucil 3 mg/kg/d ip): 766 mm^3; 4× Growth ([1]; time for the tumors to grow to 4× the initial volume at dosing, control 8.9 d): 16 days; 8× Growth ([1]; time for the tumors to grow to 8× the initial volume at dosing, control 14.5 d): 21 days
CCc1cc(-c2ccc(F)cc2)cc2c3c([nH]c12)C(CC)(CCO)OCC3 (stereo not drawn) [Compound 7]	12 µM	inhibition at 10 µM [2]: 94%; inhibition at 10 µM [3]: 99%
CCc1cc(-c2ccc3c(c2)OCO3)cc2c3c([nH]c12)C(CC)(CCO)OCC3 (stereo not drawn) [Compound 9]	10 µM	inhibition at 10 µM [2]: 88%; inhibition at 10 µM [3]: 90%
CCC1(CCO)OCCc2c1[nH]c1ccccc21 (stereo not drawn) [Compound 22, (1-ETHYL-1,3,4,9-TETRAHYDRO-PYRANO[3,4-b]INDOL-1-YL)-ETHANOL]	163 µM	–
CCC1(CCO)OCCc2c1[nH]c1ccc(OC)cc21 (stereo not drawn) [Compound 23, 2-(1-ETHYL-6-METHOXY-1,3,4,9-TETRAHYDRO-PYRANO[3,4-b]INDOL-1-YL)-ETHANOL]	70 µM	–
CCC1(CCO)OCCc2c1[nH]c1c(F)cccc21 (stereo not drawn) [Compound 26, 2-(1-ETHYL-8-FLUORO-1,3,4,9-TETRAHYDRO-PYRANO[3,4-b]INDOL-1-YL)-ETHANOL]	95 µM	–
CCC1(CCO)OCCc2c1[nH]c1c(Br)cccc21 (stereo not drawn) [Compound 28, 2-(8-BROMO-1-ETHYL-1,3,4,9-TETRAHYDRO-PYRANO[3,4-b]INDOL-1-YL)-ETHANOL]	25 µM	–
CCCC1(CCO)OCCc2c1[nH]c1c(CC)cccc21 (stereo not drawn) [Compound 30, 2-(8-ETHYL-1-PROPYL-1,3,4,9-TETRAHYDRO-PYRANO[3,4-b]INDOL-1-YL)-ETHANOL]	100 µM	–
CCc1cccc2c3c([nH]c12)C(CCO)(C(C)C)OCC3 (stereo not drawn) [Compound 31, 2-(8-ETHYL-1-ISOPROPYL-1,3,4,9-TETRAHYDRO-PYRANO[3,4-b]INDOL-1-YL)-ETHANOL]	37 µM	IC50 [5]: 244 µM
CCc1cccc2c3c([nH]c12)C(CCO)(c1ccccc1)OCC3 (stereo not drawn) [Compound 32, 2-(8-ETHYL-1-PHENYL-1,3,4,9-TETRAHYDRO-PYRANO[3,4-b]INDOL-1-YL)-ETHANOL]	15 µM	IC50 [5]: 250 µM
CCc1cccc2c3c([nH]c12)C(CC)(CC(=O)NC)OCC3 (stereo not drawn) [Compound 33]	132 µM	IC50 [5]: 98 µM
CCc1cccc2c3c([nH]c12)C1(CCC(CO)CC1)OCC3 (stereo not drawn) [Compound 34, [8′-ETHYL-4′,9′-DIHYDRO-3′H-SPIRO(CYCLOHEXANE-1,1′-PYRANO[3,4-b]INDOL)-4-YL]-METHANOL]	20 µM	–
CCC1(CCO)OCCc2c1[nH]c1c(C(F)(F)F)cccc21 (stereo not drawn) [Compound 37, 2-(1-ETHYL-8-TRIFLUOROMETHYL-1,3,4,9-TETRAHYDRO-PYRANO[3,4-b]INDOL-1-YL)-ETHANOL]	60 µM	–
CCC1(CCO)OCCc2c1[nH]c1cccc(Cl)c21 (stereo not drawn) [Compound 38, 2-(5-CHLORO-1-ETHYL-1,3,4,9-TETRAHYDRO-PYRANO[3,4-b]INDOL-1-YL)-ETHANOL]	23 µM	IC50 [6]: 73 µM
CCC1(CCO)OCCc2c1[nH]c1cccc(F)c21 (stereo not drawn) [Compound 39, 2-(1-ETHYL-5-FLUORO-1,3,4,9-TETRAHYDRO-PYRANO[3,4-b]INDOL-1-YL)-ETHANOL]	46 µM	IC50 [6]: 120 µM
CCC1(CCO)OCCc2c1[nH]c1ccc(F)cc21 (stereo not drawn) [Compound 40, 2-(1-ETHYL-6-FLUORO-1,3,4,9-TETRAHYDRO-PYRANO[3,4-b]INDOL-1-YL)-ETHANOL]	80 µM	IC50 [5]: 185 µM
CCC1(CCO)OCCc2c1[nH]c1ccc(Cl)cc21 (stereo not drawn) [Compound 41, 2-(6-CHLORO-1-ETHYL-1,3,4,9-TETRAHYDRO-PYRANO[3,4-b]INDOL-1-YL)-ETHANOL]	51 µM	IC50 [5]: 110 µM
CCC1(CCO)OCCc2c1[nH]c1cc(F)ccc21 (stereo not drawn) [Compound 43, 2-(1-ETHYL-7-FLUORO-1,3,4,9-TETRAHYDRO-PYRANO[3,4-b]INDOL-1-YL)-ETHANOL]	77 µM	–
CCC1(CCO)OCCc2c1[nH]c1cc(Cl)ccc21 (stereo not drawn) [Compound 44, 2-(7-CHLORO-1-ETHYL-1,3,4,9-TETRAHYDRO-PYRANO[3,4-b]INDOL-1-YL)-ETHANOL]	60 µM	–
CCC1(CCO)OCCc2c1[nH]c1c(C)cc(C)cc21 (stereo not drawn) [Compound 45]	8 µM	IC50 [6]: 90 µM
CCc1cccc2c3c([nH]c12)C(CC)(CC(=O)N(C)C)OCC3 (stereo not drawn) [Compound 48]	60 µM	IC50 [5]: 240 µM
CCc1c(Br)ccc2c3c([nH]c12)C(CC)(CCO)OCC3 (stereo not drawn) [Compound 51, 2-(7-BROMO-1,8-DIETHYL-1,3,4,9-TETRAHYDROPYRANO[3,4-b]INDOL-1-YL)ETHANOL]	10 µM	–
CCc1cc(-c2cc3ccccc3s2)cc2c3c([nH]c12)C(CC)(CCO)OCC3 (stereo not drawn) [Compound 52]	9 µM	inhibition at 10 µM [2]: 78%; inhibition at 10 µM [3]: 97%
CCc1cc(-c2ccc(C)cc2)cc2c3c([nH]c12)C(CC)(CCO)OCC3 (stereo not drawn) [Compound 53]	11 µM	inhibition at 10 µM [2]: 90%; inhibition at 10 µM [3]: 96%
CCC1(CCO)OCCc2c1[nH]c1c(C(C)C)cc(Br)cc21 (stereo not drawn) [Compound 54, 2-(6-BROMO-1-ETHYL-1,3,4,9-TETRAHYDRO-8-ISOPROPYLPYRANO[3,4-b]INDOL-1-yl)ETHANOL]	7 µM	–
CCOC(=O)CCc1cc(C(C)C)c2[nH]c3c(c2c1)CCOC3(CC)CCO (stereo not drawn) [Compound 55, ETHYL 3-(1-ETHYL-1,3,4,9-TETRAHYDRO-1-(2-HYDROXYETHYL)-8-ISOPROPYLPYRANO[3,4-B]INDOL-6-YL)PROPANOATE]	18 µM	–
CCC1(CCO)OCCc2c1[nH]c1c(C(C)C)cc(CCC(=O)O)cc21 (stereo not drawn) [Compound 56, 3-(1-ETHYL-1,3,4,9-TETRAHYDRO-1-(2-HYDROXYETHYL)-8-ISOPROPYLPYRANO[3,4-b]INDOL-6-YL)PROPANOIC ACID]	235 µM	–
CCC1(CCO)OCCc2c1[nH]c1c(C(C)C)cc(CCCO)cc21 (stereo not drawn) [Compound 57, 3-(1-ETHYL-1,3,4,9-TETRAHYDRO-1-(2-HYDROXYETHYL)-8-ISOPROPYLPYRANO[3,4-B]INDOL-6-YL)PROPAN-1-OL]	110 µM	–
